In assay [1] the test system is HUVEC endothelial cells. The assay is described as follows: IL-6 and IL-8 ELISA of HUVEC cells treated with sCART-mono supernatant. The assay is classed as cell-based, human. As to conditions: 24 hr, concentrations of Table 2. The protocol: With reference to FIG. 13 of the accompanying drawings, a co-culture (100) is established using a standard cell culture transwell dish, including a first compartment (101), containing CAR T cells and cancer cells (at a 1:1 ratio), which is separated from a second compartment (102), containing monocytes, by a semi-permeable membrane (103) composed of tissue-culture treated polyethylene terephthalate with a 0.4 μm pore size.
Each of UR-13870, Acumapimod and Ralimetinib are administered to the co-culture following a procedure analogous to that described in Example 2 above (at the concentrations as shown in Table 2 above).
The co-culture is incubated at 37° C., 5% CO2 and a suitably humid environment for 24 hours. On completion, the transwell insert is removed and supernatant is isolated. Cells and debris are removed from the supernatant by exposing the container to a centripetal force of 400 G and gently pipetting the supernatant into a new container without disturbing the cell pellet at the bottom of the previous container.
Prior to adding the p38 inhibitors and sCART-mono, endothelial cells are incubated overnight at 37° C. and 5% CO2 in a suitably humid environment to allow the cells to adhere fully to the tissue culture dish.
Supernatant levels of IL-6 and IL-8 are determined following 24 hr treatment with sCART-mono and the p38 MAPK inhibitors by ELISA.
Background: ELISA stands for enzyme-linked immunosorbent assay.

The subject of assay [2] is PBMC-humanized NSG-MHC I/II double knock-out mice with Raji-Luc CD19-expressing cancer cells. Nature of the assay: In vivo (murine) model using CAR T for CRS induction. Also on record: species or system mouse. The procedure:
An outline of the timeline of the model is provided in FIG. 16; it commences on Study Day −5 and ends on Study Day 10.
Thus, on Study Day −5, 30 female 6- to 8-week-old NSG-(KbDb)null (IA)null mice are irradiated at 100 cGy. 4 hours later, on the same day (Study Day −5) they are each injected, via tail vein, with 0.25×10^6 Raji-Luc CD19-expressing cancer cells (a Raji wild-type cell line with stable and high expression of luciferase, enabling detection of cancer burden by […]).
On Study Day −2, clinical observation commences for all 30 mice (including body weight monitoring) and all 30 mice are imaged using in vivo […] imaging (IVIS). For IVIS, mice are intraperitoneally injected with 150 mg/kg D-Luciferin. 10 minutes after the D-Luciferin injection, mice are imaged dorsally and ventrally (auto exposure) using an IVIS Lumina system (obtainable from PerkinElmer of Chalfont Road, Seer Green, Beaconsfield, HP9 2FX, UK). Region of interest (ROI) are drawn for each mouse to capture its whole body, and total flux (p/s) is reported. IVIS imaging of all 30 mice continues on a biweekly basis throughout the study, thereby monitoring cancer cell burden. Daily clinical observation continues throughout the study, including observation of CRS, CRS being scored as follows:
25 of the mice are injected intraperitoneally, on Study Day 0, with 5×10^6 anti-CD19 CAR T cells in phosphate-buffered saline.
As a control, a group consisting of 5 of the mice (“Group 1”) are not administered CAR T cells. Beginning on Study Day −1 and ending on Study Day 9, Group 1 receive treatment with 0.5% (w:v) HPMC, 0.1% (w:v) Tween 80 in sWFI (vehicle/control), administered BID at 5 mL/kg.
The 25 mice administered CAR T cells are divided into groups of 5 mice per group. […]

Assay [3] has as its system HUVEC endothelial cells. The assay is described as follows: QPCR of VCAM1, ICAM1 and IL-6 in HUVEC cells treated with sCAR. The assay is classed as cell-based, human. As to conditions: 24 hours. The protocol: In like manner and also in Example 3 below, sCAR (or smCAR) is added to endothelial (HUVEC) cells, available from the American Type Culture Collection, and using an equivalent protocol to the treatment of THP-1 cells (but with individually optimised conditions, such as the concentration of sCAR used), following which IL-6 release and IL-8 release are observed. Pro-inflammatory cytokines IL-6 and IL-8 are measured using an enzyme-linked immunosorbent assay (ELISA) and IL-6, ICAM1 and VCAM1 are measured by quantitative PCR (QPCR, for which a kit is suitably obtainable from Thermo Fisher Scientific of Kingfisher Dr, Swindon SN3 5BZ, UK).
sCAR (or smCAR), produced as described in Example 1 above, is added to a monoculture of HUVEC endothelial cells in the presence of UR-13870, Ralimetinib or Acumapimod at each of the concentrations shown in Table 2 above, at 37° C., 5% CO2 and a suitably humid environment for 24 hours.

Regarding `OCCCn1cc2c(-c3ccc(F)cc3)c(-c3ccncc3)c(-c3ccc(F)cc3)nc2n1` [UR-13870, 6-bis(4-fluorophenyl)-5-(4-pyridinyl)-2Hpyrazolo[3,4-b]pyridine-2-propanol], in the assay on HUVEC endothelial cells [1], the “IL-6 levels in supernatant” value is recorded as “reduced” and the “IL-8 levels in supernatant” value was “(albeit non-significant) downward trend”. Moreover, the “CAR T cell expansion (flow cytometry)” value in assay [2] (blood, Study Days 2, 6 and 10) was “successfully maintained”. In addition, the “CAR T cell therapy efficacy, tumour burden (IVIS)” value in assay [2] (day 7 and day 9, UR-13870 2, 10, 25 mg/kg BID s.c., Humira 5 mg/kg i.p. once) was “remained efficacious”. Moreover, in assay [2] (day 10, high dose (25 mg/kg BID)), the “number of CAR T cells in circulation” value is given as “significantly enhanced”. Moreover, in the assay on HUVEC endothelial cells [3], the “ICAM1 mRNA levels” value was “significantly reduce”; the “IL-6 mRNA levels” value was “significantly reduce”; the “VCAM1 mRNA levels” value was “reduced, albeit non-significantly”.
